Source: the kinase profiling compilation of Christmann-Franck et al. (2016)

Columns and labels:
Assay in all cases: KINOMEscan competition binding
Conditions in all cases: compound 10.0 µM
[1] = target: GSK3A (human) (UniProt P49840)
[2] = target: PHKG2 (human) (UniProt P15735)
[3] = target: TLK2 (human) (UniProt Q86UE8)
[4] = target: CDK16 (human) (UniProt Q00536)
[5] = target: PRKACA (human) (UniProt P17612)
[6] = target: RET (human) (UniProt P07949)
[7] = target: AURKB (human) (UniProt Q96GD4)
Chain of AURKB (human) (Q96GD4 whole entry, looked up): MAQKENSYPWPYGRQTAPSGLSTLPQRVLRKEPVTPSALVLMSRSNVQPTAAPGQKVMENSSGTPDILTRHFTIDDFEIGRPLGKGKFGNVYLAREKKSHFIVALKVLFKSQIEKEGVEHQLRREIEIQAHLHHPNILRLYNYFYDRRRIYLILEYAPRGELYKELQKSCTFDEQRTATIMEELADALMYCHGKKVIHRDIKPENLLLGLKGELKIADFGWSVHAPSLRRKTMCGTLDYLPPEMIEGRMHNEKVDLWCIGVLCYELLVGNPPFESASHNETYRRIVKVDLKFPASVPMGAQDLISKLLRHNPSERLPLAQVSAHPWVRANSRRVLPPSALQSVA

[8] = target: PTK2B (human) (UniProt Q14289)
[9] = target: ADCK4 (human) (UniProt Q96D53)
[10] = target: ANKK1 (human) (UniProt Q8NFD2)
[11] = target: PLK1 (human) (UniProt P53350)
[12] = target: CDK7 (human) (UniProt P50613)
[13] = target: ULK1 (human) (UniProt O75385)
[14] = target: MAP3K4 (human) (UniProt Q9Y6R4)
[15] = target: CSNK1G1 (human) (UniProt Q9HCP0)
[16] = target: PDGFRA (human) (UniProt P16234)
Chain of PDGFRA (human) (P16234 whole entry, looked up): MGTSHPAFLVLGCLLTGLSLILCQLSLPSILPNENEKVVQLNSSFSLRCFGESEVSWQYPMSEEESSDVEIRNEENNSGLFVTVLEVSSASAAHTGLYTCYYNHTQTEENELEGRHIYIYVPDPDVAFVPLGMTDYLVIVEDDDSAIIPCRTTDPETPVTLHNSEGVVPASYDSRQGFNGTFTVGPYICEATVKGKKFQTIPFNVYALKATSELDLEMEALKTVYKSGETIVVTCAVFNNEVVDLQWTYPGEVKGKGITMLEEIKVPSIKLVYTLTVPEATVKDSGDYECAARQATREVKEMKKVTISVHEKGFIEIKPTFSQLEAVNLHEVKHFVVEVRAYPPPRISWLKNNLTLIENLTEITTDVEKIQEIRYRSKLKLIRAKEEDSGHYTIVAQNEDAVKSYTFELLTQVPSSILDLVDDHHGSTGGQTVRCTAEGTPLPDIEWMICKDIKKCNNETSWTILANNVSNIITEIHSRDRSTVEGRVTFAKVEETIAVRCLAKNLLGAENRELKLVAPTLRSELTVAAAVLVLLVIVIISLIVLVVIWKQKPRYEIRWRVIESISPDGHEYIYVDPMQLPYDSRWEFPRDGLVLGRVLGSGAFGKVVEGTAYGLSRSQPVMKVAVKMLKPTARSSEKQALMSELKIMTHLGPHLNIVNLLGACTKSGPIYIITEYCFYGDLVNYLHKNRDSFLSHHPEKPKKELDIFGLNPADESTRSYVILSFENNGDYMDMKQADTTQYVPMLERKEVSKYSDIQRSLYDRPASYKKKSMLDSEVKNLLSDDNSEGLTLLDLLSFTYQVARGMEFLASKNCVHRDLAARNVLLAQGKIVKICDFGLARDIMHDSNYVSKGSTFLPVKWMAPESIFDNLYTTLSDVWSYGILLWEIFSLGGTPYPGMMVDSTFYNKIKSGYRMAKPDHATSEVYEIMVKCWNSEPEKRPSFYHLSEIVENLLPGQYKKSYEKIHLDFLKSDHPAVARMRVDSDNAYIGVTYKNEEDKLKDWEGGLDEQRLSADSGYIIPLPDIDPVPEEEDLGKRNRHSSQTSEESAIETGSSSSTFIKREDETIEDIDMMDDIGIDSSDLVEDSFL

[17] = target: CSNK1D (human) (UniProt P48730)
Chain of CSNK1D (human) (P48730 whole entry, looked up): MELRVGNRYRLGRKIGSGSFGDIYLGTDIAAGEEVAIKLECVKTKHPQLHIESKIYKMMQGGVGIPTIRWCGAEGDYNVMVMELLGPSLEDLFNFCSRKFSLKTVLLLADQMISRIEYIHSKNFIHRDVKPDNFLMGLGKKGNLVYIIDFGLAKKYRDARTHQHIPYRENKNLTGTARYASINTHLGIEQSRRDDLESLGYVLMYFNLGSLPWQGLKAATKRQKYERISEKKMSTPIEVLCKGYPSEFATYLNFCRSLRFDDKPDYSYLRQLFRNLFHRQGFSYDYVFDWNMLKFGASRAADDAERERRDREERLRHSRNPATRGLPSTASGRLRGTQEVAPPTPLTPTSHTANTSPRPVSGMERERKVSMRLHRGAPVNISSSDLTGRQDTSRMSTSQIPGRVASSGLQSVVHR

[18] = target: DAPK1 (human) (UniProt P53355)
[19] = target: JAK2 JH1 catalytic (human) (UniProt O60674)
[20] = target: CAMKK2 (human) (UniProt Q96RR4)
[21] = target: RPS6KA6 KD2 (human) (UniProt Q9UK32)
[22] = target: LYN (human) (UniProt P07948)
[23] = target: NEK9 (human) (UniProt Q8TD19)
[24] = target: PIK3CB (human) (UniProt P42338)
Chain of PIK3CB (human) (P42338 whole entry, looked up): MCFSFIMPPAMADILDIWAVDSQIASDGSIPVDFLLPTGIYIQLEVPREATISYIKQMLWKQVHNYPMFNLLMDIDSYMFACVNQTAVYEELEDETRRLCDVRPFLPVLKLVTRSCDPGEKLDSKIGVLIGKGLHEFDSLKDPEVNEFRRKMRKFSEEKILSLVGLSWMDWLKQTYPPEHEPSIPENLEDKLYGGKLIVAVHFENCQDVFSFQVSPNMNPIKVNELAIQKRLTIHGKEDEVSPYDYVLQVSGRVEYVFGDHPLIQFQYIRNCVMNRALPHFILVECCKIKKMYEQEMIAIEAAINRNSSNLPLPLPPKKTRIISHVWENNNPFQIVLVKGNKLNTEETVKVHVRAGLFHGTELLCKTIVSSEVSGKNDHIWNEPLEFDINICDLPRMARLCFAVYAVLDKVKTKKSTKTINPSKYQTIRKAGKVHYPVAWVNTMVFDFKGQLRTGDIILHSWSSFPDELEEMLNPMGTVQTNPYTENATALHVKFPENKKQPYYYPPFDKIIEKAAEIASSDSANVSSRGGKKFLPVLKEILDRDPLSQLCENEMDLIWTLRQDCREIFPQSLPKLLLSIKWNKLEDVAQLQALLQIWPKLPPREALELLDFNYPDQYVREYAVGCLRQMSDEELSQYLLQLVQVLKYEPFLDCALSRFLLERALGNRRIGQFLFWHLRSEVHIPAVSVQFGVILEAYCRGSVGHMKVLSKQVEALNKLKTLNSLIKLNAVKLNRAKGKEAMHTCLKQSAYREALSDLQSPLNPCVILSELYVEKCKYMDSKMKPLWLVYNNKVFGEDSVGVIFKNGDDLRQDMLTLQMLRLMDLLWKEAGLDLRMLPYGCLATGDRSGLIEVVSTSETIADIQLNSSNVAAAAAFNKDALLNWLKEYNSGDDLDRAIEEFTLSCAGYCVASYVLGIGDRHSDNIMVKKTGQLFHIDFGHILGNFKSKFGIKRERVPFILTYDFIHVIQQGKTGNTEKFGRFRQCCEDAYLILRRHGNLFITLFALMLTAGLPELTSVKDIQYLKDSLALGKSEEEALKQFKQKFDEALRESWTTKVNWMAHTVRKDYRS

[25] = target: TGFBR1 (human) (UniProt P36897)
[26] = target: PHKG1 (human) (UniProt Q16816)
[27] = target: ACVR1 (human) (UniProt Q04771)
Chain of ACVR1 (human) (Q04771 whole entry, looked up): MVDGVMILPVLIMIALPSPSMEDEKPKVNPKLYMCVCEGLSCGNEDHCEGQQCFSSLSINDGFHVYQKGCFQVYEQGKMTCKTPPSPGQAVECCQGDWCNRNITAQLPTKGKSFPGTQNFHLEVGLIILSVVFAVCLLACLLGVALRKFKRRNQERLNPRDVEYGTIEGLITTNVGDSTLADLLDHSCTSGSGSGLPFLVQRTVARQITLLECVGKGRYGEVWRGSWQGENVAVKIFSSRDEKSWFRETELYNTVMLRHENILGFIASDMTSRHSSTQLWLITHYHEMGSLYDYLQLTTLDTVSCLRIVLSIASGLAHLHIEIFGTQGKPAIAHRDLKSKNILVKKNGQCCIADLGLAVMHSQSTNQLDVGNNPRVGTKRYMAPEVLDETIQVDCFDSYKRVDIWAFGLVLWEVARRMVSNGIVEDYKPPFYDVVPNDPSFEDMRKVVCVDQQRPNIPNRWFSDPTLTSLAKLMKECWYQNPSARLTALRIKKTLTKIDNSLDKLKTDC

[28] = target: NUAK1 (human) (UniProt O60285)
[29] = target: RIOK3 (human) (UniProt O14730)
[30] = target: EPHA8 (human) (UniProt P29322)
Chain of EPHA8 (human) (P29322 whole entry, looked up): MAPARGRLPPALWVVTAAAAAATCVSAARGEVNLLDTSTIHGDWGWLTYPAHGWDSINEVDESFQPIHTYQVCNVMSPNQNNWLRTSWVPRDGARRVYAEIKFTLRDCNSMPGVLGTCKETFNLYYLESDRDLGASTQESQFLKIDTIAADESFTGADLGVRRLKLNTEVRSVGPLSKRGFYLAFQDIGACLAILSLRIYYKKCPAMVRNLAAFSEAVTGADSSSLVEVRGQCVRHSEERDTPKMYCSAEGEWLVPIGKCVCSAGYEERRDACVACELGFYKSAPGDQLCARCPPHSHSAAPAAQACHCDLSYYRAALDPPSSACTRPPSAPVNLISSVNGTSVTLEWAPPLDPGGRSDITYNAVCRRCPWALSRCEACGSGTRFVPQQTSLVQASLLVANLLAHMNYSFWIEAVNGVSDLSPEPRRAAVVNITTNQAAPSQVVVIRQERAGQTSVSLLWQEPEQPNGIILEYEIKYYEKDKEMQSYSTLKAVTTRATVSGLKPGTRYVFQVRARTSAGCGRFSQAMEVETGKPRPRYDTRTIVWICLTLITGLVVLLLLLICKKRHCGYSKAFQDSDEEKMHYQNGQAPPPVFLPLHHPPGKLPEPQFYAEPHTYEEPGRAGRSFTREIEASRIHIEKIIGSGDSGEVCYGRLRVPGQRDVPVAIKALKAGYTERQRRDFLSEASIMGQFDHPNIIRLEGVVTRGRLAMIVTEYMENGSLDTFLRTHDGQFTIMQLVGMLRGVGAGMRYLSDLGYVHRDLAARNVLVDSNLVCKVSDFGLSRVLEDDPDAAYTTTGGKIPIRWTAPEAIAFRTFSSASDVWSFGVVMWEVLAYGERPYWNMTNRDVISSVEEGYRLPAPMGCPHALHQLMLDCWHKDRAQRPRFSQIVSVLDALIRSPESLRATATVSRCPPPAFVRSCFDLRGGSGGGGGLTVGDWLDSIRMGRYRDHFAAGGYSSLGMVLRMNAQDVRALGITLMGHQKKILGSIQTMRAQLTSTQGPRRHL

[31] = target: MYO3A (human) (UniProt Q8NEV4)
[32] = target: NEK1 (human) (UniProt Q96PY6)
[33] = target: LATS1 (human) (UniProt O95835)
[34] = target: PAK2 (human) (UniProt Q13177)
[35] = target: STK25 (human) (UniProt O00506)
[36] = target: ACVR2B (human) (UniProt Q13705)
Chain of ACVR2B (human) (Q13705 whole entry, looked up): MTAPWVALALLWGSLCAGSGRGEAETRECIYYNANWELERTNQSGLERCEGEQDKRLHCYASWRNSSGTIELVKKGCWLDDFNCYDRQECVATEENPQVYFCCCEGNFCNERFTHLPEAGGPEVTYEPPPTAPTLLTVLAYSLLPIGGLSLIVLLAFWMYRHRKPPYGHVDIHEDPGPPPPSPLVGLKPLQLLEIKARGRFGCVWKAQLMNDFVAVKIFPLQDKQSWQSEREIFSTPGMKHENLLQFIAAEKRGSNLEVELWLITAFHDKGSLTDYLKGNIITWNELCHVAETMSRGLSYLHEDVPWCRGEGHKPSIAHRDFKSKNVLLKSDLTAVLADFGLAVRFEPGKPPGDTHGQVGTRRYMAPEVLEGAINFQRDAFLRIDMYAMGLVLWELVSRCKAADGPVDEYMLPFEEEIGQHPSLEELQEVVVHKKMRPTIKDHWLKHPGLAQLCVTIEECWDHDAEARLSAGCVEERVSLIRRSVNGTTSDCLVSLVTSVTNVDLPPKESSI

[37] = target: DCLK2 (human) (UniProt Q8N568)
[38] = target: MAP3K11 (human) (UniProt Q16584)
[39] = target: CDK14 (human) (UniProt O94921)
[40] = target: MLTK (human) (UniProt Q9NYL2)

| Compound | kinase still bound, per cent of control [1] [%] | kinase still bound, per cent of control [2] [%] | kinase still bound, per cent of control [3] [%] | kinase still bound, per cent of control [4] [%] | kinase still bound, per cent of control [5] [%] | kinase still bound, per cent of control [6] [%] | kinase still bound, per cent of control [7] [%] | kinase still bound, per cent of control [8] [%] | kinase still bound, per cent of control [9] [%] | kinase still bound, per cent of control [10] [%] | kinase still bound, per cent of control [11] [%] | kinase still bound, per cent of control [12] [%] | kinase still bound, per cent of control [13] [%] | kinase still bound, per cent of control [14] [%] | kinase still bound, per cent of control [15] [%] | kinase still bound, per cent of control [16] [%] | kinase still bound, per cent of control [17] [%] | kinase still bound, per cent of control [18] [%] | kinase still bound, per cent of control [19] [%] | kinase still bound, per cent of control [20] [%] | also measured |
| --- | --- | --- | --- | --- | --- | --- | --- | --- | --- | --- | --- | --- | --- | --- | --- | --- | --- | --- | --- | --- | --- |
| COc1cc(C(=O)NC2CCN(C)CC2)ccc1Nc1ncc2c(n1)N(C1CCCC1)CCC(=O)N2C(C)C | 100 | 100 | 100 | 100 | 100 | 100 | 100 | 100 | 100 | 100 | 17 | 100 | 100 | 100 | 100 | 100 | 100 | 100 | 100 | 100 | kinase still bound, per cent of control [21]: 100%; kinase still bound, per cent of control [22]: 100%; kinase still bound, per cent of control [23]: 100%; kinase still bound, per cent of control [24]: 100%; kinase still bound, per cent of control [25]: 100%; kinase still bound, per cent of control [26]: 100%; kinase still bound, per cent of control [27]: 100%; kinase still bound, per cent of control [28]: 100%; kinase still bound, per cent of control [29]: 100%; kinase still bound, per cent of control [30]: 100%; kinase still bound, per cent of control [31]: 100%; kinase still bound, per cent of control [32]: 100%; kinase still bound, per cent of control [33]: 100%; kinase still bound, per cent of control [34]: 100%; kinase still bound, per cent of control [35]: 100%; kinase still bound, per cent of control [36]: 100%; kinase still bound, per cent of control [37]: 100%; kinase still bound, per cent of control [38]: 100%; kinase still bound, per cent of control [39]: 100%; kinase still bound, per cent of control [40]: 100% |
| C=CC(=O)Nc1cccc(Nc2nc(N[C@H]3CC[C@H](N(C)C)CC3)nc3c2ncn3C(C)C)c1 | 100 | 44 | 100 | 100 | 100 | 73 | 73 | 51 | 94 | 62 | 21 | 15 | 0.7 | 100 | 28 | 59 | 0.75 | 29 | 9.1 | 25 | kinase still bound, per cent of control [21]: 100%; kinase still bound, per cent of control [22]: 50%; kinase still bound, per cent of control [23]: 100%; kinase still bound, per cent of control [24]: 100%; kinase still bound, per cent of control [25]: 100%; kinase still bound, per cent of control [26]: 57%; kinase still bound, per cent of control [27]: 100%; kinase still bound, per cent of control [28]: 93%; kinase still bound, per cent of control [29]: 34%; kinase still bound, per cent of control [30]: 100%; kinase still bound, per cent of control [31]: 94%; kinase still bound, per cent of control [32]: 100%; kinase still bound, per cent of control [33]: 100%; kinase still bound, per cent of control [34]: 61%; kinase still bound, per cent of control [35]: 89%; kinase still bound, per cent of control [36]: 91%; kinase still bound, per cent of control [37]: 89%; kinase still bound, per cent of control [38]: 24%; kinase still bound, per cent of control [39]: 98%; kinase still bound, per cent of control [40]: 100% |
| N#Cc1c(NC(=O)c2cccc3ccccc23)sc2c1CCCC2 | 72 | 83 | 100 | 100 | 78 | 94 | 94 | 79 | 100 | 78 | 81 | 82 | 100 | 86 | 50 | 89 | 100 | 85 | 100 | 94 | kinase still bound, per cent of control [21]: 77%; kinase still bound, per cent of control [22]: 78%; kinase still bound, per cent of control [23]: 70%; kinase still bound, per cent of control [24]: 100%; kinase still bound, per cent of control [25]: 100%; kinase still bound, per cent of control [26]: 100%; kinase still bound, per cent of control [27]: 64%; kinase still bound, per cent of control [28]: 77%; kinase still bound, per cent of control [29]: 100%; kinase still bound, per cent of control [30]: 79%; kinase still bound, per cent of control [31]: 42%; kinase still bound, per cent of control [32]: 100%; kinase still bound, per cent of control [33]: 93%; kinase still bound, per cent of control [34]: 97%; kinase still bound, per cent of control [35]: 93%; kinase still bound, per cent of control [36]: 67%; kinase still bound, per cent of control [37]: 100%; kinase still bound, per cent of control [38]: 98%; kinase still bound, per cent of control [39]: 98%; kinase still bound, per cent of control [40]: 87% |
